Read-outs that look alike come from different tables or passages of the source.
Legend:
[1] = tested on: P. gingivalis wild-type W83; test: Checkerboard / broth micro-dilution assay (MIC, MBC), wild-type W83; assay type: cell-based, Porphyromonas gingivalis
From the text: Fig. 5 A prototype DPIX-conjugated antibiotic binds HusA and inhibits P. gingivalis. a The chemical structure of the deuteroporphyrin-lysine-metronidazole adduct, P8. b NMR signal intensity changes (black) and ^1H^N CSPs (red/green) for HusA upon addition of P8 (measured from ^15N-HSQC spectra shown in Supplementary Figure 21). c In silico docking of P8 to the energy minimized structure of HusA (conformer set 1), with residues experiencing NMR signal loss (orange) or CSPs (red/green) mapped to the structure (colouring as described in Fig. 2d). d Scaled and corrected fluorescence at 335 nm during titration of 1 μM of HusA with increasing concentrations of P8, haemin or DPIX. e Comparison of P8 inhibitory effect towards P. gingivalis wild-type W83 and husA mutants using checkerboard analysis. Serial dilutions of antibiotics (horizontal axis) were applied to a 96-well plate with different P. gingivalis strains (vertical axis). Serial dilutions of DPIX were also supplemented into wild-type W83 group to evaluate the competitive effect against P8. Absorption at OD600 of each well was recorded after 24 h of incubation. The OD600 of each strain grown in the absence of antibiotics was defined as 100% growth, which was applied to normalise the reading collected from other wells. The normalised percentage of each well was plotted in the checkerboard. Metronidazole alone and in combination with PPIX or DPIX was applied as control. f Intracellular killing assay of P8 antibiotics. Gingival H413 epithelial cells were infected by P. gingivalis W83 and then treated with P8 at various concentrations. Recovered bacteria were determined by CFU count. Metronidazole and DMSO were used as control. Three independent experiments with triplicate assays were conducted. […]

[2] = tested on: H413 gingival epithelial cells; assay type: cell-based, Human; conditions: concentrations above 0.5 µM; 1 h or 2 h
Description: As P8 could penetrate epithelial cells, the cell membrane integrity was tested using lactate dehydrogenase (LDH) assay. LDH is readily released following cellular membrane damage. As per manufacturer’s instructions (Thermo Fisher Scientific, Australia), H413 cells were treated with P8 at various concentrations and incubated for 1 h and 2 h, respectively. The drug solubilisation medium DMSO and metronidazole were used as controls. The positive control provided by the manufacturer was used to determine the maximal LDH release and the ratio of corrected values obtained for the experimental groups relative to maximum LDH release represented cytotoxicity. The fluorescence intensity was recorded on SpetraMax® i3 (Molecular Devices, Australia).
Supplementary Figure 23. (A) UV-vis spectra of 10 µM P8 alone and in the presence of 10 µM HusA. (B) Stability assay of P8 in the presence of gingival epithelial cell lysate. The intensity of P8 fluorescence was applied to monitor the stability of P8 in the presence of cell lysate. (C) Confocal microscope analysis of the progressive uptake of P8 by H413 gingival epithelial cell over a 2 h period.
The fluorescent P8 is shown in red and the nuclei stained by DAPI are shown in blue. Scale bar, 25 µm. (D) Lactate dehydrogenase cytotoxicity assay of H413 gingival epithelial cells treated with P8 at various concentrations for 1 h or 2 h incubation. […]

[3] = molecular target: T1, HusA (Porphyromonas gingivalis, UniProt Q7MSY3); test: Tryptophan fluorescence quenching assay, HusA wild-type; assay type: binding
T1 sequence (Q7MSY3 24-218): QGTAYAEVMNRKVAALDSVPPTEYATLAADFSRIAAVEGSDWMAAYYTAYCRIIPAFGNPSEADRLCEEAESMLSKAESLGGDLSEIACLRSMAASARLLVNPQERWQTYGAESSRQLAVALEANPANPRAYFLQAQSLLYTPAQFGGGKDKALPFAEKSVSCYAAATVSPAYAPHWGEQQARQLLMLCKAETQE
Description: (§1) The quenching of intrinsic tryptophan fluorescence of HusA upon porphyrin additions was measured using a Carey Eclipse Fluorescence Spectrophotometer (Agilent) set to a photo multiplier effect (PME) of 850. A 5-mm path length quartz cuvette was used and all spectra were acquired at room temperature. Excitation was set to 295 nm and emission was measured from 300 nm to 500 nm using excitation/emission slit widths of 5 nm. Binding assays were performed at a protein concentration of 1 μM HusA in standard buffer at a working volume of 0.5 mL. […] The fluorescence quenching of HusA by PPIX was investigated in a similar manner with the following difference: the fluorescence intensities of ten 1 μM HusA samples were measured each with increasing amounts of PPIX after a 2-h incubation period to allow equilibrium to be reached. See Supplementary Methods for correction for inner filter effect and curve fitting. […]
(§2) Correction of inner filter effect and curve fitting in tryptophan fluorescence quenching assays The concentration of NATA was chosen such that the raw fluorescence intensity was similar to the […] concentrations of HusA and mutants used. The same molarity titrants of porphyrin were titrated into NATA as were added into HusA in the control reactions. Fluorescence intensity was scaled with respect to the starting florescence and corrected for the inner filter effect. Fluorescence at 335 nm was used to fit binding curves.
The correction method is based on Fonin AV., et al.26, noting that a Cary Eclipse spectrofluorimeter […]
performed to measure the contribution to the decrease in fluorescence due to the inner filter effect and this effect was scaled to the starting fluorescence values as fractional changes. The measured fluorescence at each titration point for each of the porphyrin titrations into protein was then adjusted for this contribution. Fluorescence at 335 nm was used to fit binding curves. Association constant, Ka, was fitted using the following equation in Origin, assuming a single binding site. A dissociation constant, Kd, was calculated by taking the inverse of the Ka.
Xobs = XA×f A+XAB×f AB (1) where XA is the corrected fluorescence, fA=1-fAB, fAB=x/(Bt), x=(-b-sqrt(b2-4×c))/2, b=-(1/Ka+At+Bt), c=Bt×At, Bt=total concentration of protein, At=total concentration of ligand.
To aid comparison of the different titrations, the corrected fluorescence was scaled to the starting fluorescence in the absence of porphyrins (i.e. all fluorescence curves have a starting value of one

[4] = molecular target: HusA; conditions: previously reported; now considered far weaker; cited from earlier work
[5] = molecular target: T2, HusA Y164A (Porphyromonas gingivalis, UniProt Q7MSY3, Y164A); test: Tryptophan fluorescence quenching assay, HusA mutant Y164A; assay type: binding
T2 sequence (Q7MSY3 24-218 Y164A): T1 sequence (Q7MSY3 24-218)
Description: as §1
as §2, with “The same molarity titrants of porphyrin were titrated into NATA as were added into HusA in the control reactions.” left out, “curves. […]” for “curves.”

| Compound | MBC ([1]; Porphyromonas gingivalis, no growth recovery on eTSB agar plate, read-out: minimal bactericidal concentration) | MIC ([1]; Porphyromonas gingivalis, planktonic W83, 24 h, anaerobic, read-out: minimal inhibitory concentration) | killing of extracellular P. gingivalis ([1]; planktonic W83) | cell toxicity (LDH release) [2] | Kd ([3]; estimate by comparison to other porphyrins, not fitted, UV-visible absorption and fluorescence data, read-out: affinity for HusA) | Kd [4] | reduction of haemin affinity compared to wild-type [5] | Kd ([3]; HusA wild-type 1 µM, fit to 1:1 binding model) |
| --- | --- | --- | --- | --- | --- | --- | --- | --- |
| CC1=Cc2cc3[nH]c(cc4nc(cc5[nH]c(cc1n2)cc5C)C(C)=C4CCC(=O)N[C@@H](CCCCNC(=O)OC(C)(C)C)C(=O)NCCn1c([N+](=O)[O-])cnc1C)c(CCC(=O)O)c3C [P8] | 10 to 20 µM | 1.25 to 2.5 µM | more effective than metronidazole | does not induce cell toxicity | 1 to 10 µM | – | – | – |
| C=CC1=C(C)c2cc3[nH]c(cc4nc(cc5[nH]c(cc1n2)c(C)c5CCC(=O)O)C(CCC(=O)O)=C4C)c(C)c3C=C.[Fe+3] [haemin] | – | – | – | – | – | ~0.002 µM | > 50% | 7.3 ± 1.1 µM |
